The source of these data is US11122826B2, “Organic compounds” (GIVAUDAN S.A., priority 2013, dated 2021).

The nature of the assay: Taste evaluation by a panel of experienced tasters in Kikkoman low salt soy sauce. The following applies: 0.25 ppm dosed to Kikkoman low salt soy sauce (1 g salt/100 ml). As to the method:
Blanco Verdunde Kikkoman low Salt 1 g Salt/100 ml
The samples were evaluated by a panel of experienced tasters.

Consider `CCCCCCCC/C=C\CCCCCCCC(=O)NC(C)(C)C(=O)O` [2-methyl-2-oleamidopropanoic acid, 2-methyl-2-oleamidopropanoic Acid], for which the “taste of the sample as agreed by the panel” value (from here on “taste of the sample as agreed”) was “cleaner, more upfront body, salty, less fermented, more upfront, more salty bitter and sweet, fermented”.

As for `CCCCCCCCCCCCCCCC(=O)NC(C)(C)C(=O)O` [2-methyl-2-palmitamidopropanoic acid, 2-methyl-2-palmitamidopropanoic Acid], the “taste of the sample as agreed” value is “strong salty, more upfront, fermented, slightly bitter and sweet”. Regarding `CCCCCCCCCCCCCCCCCC(=O)NC(C)(C)C(=O)O` [2-methyl-2-stearamidopropanoic acid, 2-methyl-2-stearamidopropanoic Acid], the “taste of the sample as agreed” value is “salty upfront, no aftertaste expanding, bitter aftertaste not negative, more upfront salty, not as bitter and sweet, fermented”.
